Results on twelve compounds are retold here after ChEMBL document CHEMBL4130363, “Synthesis and pharmacological evaluation of benzamide derivatives as potent and selective sigma-1 protein ligands” (Eur J Med Chem, 2017).

The inhibition is the relative decrease from the control value, in per cent.

Assay [1] has as its target Delta-type opioid receptor (Homo sapiens) (UniProt P41143). Put plainly: Agonist activity at recombinant human delta-type opioid receptor at 10 uM by GTPgamma[35S] binding-based assay relative to agonist. The assay is classed as functional.
For assay [2], the target named is Histamine H2 receptor (Homo sapiens) (UniProt P25021). The experiment in a line: Antagonist activity at recombinant human histamine H2 receptor assessed as inhibition of agonist-induced cAMP levels at 10 uM by HTRF assay. Type of assay: functional. Background: Cyclic AMP is a second messenger, typically raised through Gs and lowered through Gi signalling.
Chain of Histamine H2 receptor (Homo sapiens) (P25021 whole entry): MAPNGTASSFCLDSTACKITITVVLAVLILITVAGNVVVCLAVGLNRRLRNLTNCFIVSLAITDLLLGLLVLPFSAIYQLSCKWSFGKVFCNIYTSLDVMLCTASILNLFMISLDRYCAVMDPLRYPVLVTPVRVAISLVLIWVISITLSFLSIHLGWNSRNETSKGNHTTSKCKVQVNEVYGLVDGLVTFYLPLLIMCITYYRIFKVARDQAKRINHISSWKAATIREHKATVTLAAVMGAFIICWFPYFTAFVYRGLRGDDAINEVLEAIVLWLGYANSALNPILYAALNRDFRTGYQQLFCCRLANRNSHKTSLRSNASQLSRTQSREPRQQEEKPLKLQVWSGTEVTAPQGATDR
The target in assay [3] is Beta-2 adrenergic receptor (Homo sapiens) (UniProt P07550). The experiment in a line: Antagonist activity at recombinant human beta-2 adrenergic receptor assessed as inhibition of agonist-induced cAMP induction at 10 uM by HTRF assay. The assay is classed as functional.
Chain of Beta-2 adrenergic receptor (Homo sapiens) (P07550 whole entry, looked up): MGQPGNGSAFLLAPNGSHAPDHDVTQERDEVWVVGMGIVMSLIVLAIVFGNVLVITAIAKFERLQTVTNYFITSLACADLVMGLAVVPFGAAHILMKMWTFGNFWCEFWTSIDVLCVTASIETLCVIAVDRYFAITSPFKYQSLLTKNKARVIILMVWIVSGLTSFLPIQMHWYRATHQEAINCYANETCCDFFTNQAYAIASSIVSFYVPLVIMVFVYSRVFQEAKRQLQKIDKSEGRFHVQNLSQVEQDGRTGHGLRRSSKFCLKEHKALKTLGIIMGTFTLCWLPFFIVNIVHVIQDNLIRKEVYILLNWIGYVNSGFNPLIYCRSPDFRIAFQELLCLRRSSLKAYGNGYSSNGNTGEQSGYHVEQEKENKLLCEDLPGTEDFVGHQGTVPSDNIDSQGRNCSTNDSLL
Assay [4] addresses T1, Muscarinic acetylcholine receptor M1 (Homo sapiens) (UniProt P11229).
T1 sequence (whole entry): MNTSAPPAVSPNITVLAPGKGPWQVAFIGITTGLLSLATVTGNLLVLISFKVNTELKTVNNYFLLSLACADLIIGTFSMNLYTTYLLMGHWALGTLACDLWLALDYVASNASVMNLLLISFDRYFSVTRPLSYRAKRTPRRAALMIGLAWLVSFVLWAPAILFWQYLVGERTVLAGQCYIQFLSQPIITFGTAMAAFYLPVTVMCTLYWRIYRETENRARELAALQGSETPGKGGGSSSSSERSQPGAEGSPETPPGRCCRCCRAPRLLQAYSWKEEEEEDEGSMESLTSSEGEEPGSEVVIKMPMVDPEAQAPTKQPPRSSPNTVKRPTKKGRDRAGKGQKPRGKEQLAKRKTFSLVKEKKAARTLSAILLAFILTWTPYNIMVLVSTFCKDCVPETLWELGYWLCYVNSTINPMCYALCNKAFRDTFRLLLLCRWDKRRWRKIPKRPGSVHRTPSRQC
Put plainly: Agonist activity at recombinant human muscarinic M1 receptor at 10 uM by aequorin reporter based assay relative to agonist. Type of assay: functional.

In assay [5] the target is T2, 5-hydroxytryptamine receptor 3A (Homo sapiens) (UniProt P46098).
T2 sequence (whole entry): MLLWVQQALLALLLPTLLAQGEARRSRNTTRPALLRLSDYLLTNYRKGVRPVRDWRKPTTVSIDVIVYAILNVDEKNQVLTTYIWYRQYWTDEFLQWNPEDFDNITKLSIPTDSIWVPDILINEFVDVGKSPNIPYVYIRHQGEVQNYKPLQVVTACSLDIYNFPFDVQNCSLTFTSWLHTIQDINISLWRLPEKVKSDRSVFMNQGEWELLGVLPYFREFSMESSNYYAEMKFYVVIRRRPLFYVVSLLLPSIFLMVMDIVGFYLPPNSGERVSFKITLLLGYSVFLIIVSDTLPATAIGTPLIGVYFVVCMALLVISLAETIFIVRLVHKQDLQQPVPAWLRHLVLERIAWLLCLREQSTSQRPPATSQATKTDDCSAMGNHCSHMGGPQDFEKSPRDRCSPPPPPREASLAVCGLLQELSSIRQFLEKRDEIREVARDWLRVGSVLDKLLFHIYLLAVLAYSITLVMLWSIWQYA
The experiment in a line: Antagonist activity at recombinant human 5-HT3 assessed as inhibition of agonist-induced effect at 10 uM by aequorin reporter based assay.

In assay [6] the target is T3, Alpha-1A adrenergic receptor (Homo sapiens) (UniProt P35348).
T3 sequence (whole entry): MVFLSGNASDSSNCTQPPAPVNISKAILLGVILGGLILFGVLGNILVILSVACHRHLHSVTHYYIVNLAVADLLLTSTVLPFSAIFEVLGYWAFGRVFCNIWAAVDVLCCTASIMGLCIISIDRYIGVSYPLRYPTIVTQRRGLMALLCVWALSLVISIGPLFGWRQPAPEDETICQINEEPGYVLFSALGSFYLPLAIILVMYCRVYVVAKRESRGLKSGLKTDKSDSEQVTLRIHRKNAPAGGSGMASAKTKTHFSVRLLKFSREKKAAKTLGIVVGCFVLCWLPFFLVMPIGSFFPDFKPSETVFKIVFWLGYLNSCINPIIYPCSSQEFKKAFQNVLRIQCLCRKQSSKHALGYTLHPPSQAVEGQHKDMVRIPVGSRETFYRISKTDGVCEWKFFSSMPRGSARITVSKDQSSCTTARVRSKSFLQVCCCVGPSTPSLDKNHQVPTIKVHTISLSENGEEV
The experiment in a line: Antagonist activity at recombinant human alpha-1a adrenergic receptor assessed as inhibition of agonist-induced […] reporter based assay. The assay is classed as functional.

Assay [7] deals with 5-hydroxytryptamine receptor 5A (Homo sapiens) (UniProt P47898). Put plainly: Antagonist activity at recombinant human 5-HT5A assessed as inhibition of agonist-induced effect at 10 uM by aequorin reporter based assay. Type of assay: functional.
Chain of 5-hydroxytryptamine receptor 5A (Homo sapiens) (P47898 whole entry): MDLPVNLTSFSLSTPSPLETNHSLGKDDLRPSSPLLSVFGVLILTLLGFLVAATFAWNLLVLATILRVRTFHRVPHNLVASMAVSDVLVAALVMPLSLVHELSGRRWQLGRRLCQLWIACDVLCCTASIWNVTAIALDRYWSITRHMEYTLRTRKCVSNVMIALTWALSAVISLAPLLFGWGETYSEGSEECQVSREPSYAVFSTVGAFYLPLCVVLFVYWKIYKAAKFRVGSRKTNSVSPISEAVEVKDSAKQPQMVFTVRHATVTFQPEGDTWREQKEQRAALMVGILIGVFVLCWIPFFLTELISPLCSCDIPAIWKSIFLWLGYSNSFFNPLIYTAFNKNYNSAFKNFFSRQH
Assay [8] concerns the target Mu-type opioid receptor (Homo sapiens) (UniProt P35372). The experiment in a line: Agonist activity at recombinant human mu-type opioid receptor at 10 uM by GTPgamma[35S] binding-based assay relative to agonist. Type of assay: functional. In general terms: GTPγS resists hydrolysis and so accumulates on activated G proteins.
Assay [9] deals with T4, Vasoactive intestinal polypeptide receptor 1 (Homo sapiens) (UniProt P32241).
T4 sequence (whole entry): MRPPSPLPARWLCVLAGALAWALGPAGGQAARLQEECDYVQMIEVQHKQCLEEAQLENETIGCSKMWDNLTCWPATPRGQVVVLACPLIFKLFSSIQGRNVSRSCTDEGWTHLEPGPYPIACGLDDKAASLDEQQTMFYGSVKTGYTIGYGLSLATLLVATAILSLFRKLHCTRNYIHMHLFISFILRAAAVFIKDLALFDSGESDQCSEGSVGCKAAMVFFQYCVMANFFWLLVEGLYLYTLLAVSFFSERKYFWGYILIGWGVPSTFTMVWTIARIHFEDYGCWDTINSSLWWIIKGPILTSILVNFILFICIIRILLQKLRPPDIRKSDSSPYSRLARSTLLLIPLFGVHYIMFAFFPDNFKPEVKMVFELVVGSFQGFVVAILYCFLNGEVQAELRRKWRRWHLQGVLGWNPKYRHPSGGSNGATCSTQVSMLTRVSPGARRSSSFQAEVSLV
The experiment in a line: Agonist activity at recombinant human VPAC1 receptor at 10 uM by aequorin reporter based assay relative to agonist. The assay is classed as functional.

The target in assay [10] is T5, 5-hydroxytryptamine receptor 1A (Homo sapiens) (UniProt P08908).
T5 sequence (whole entry): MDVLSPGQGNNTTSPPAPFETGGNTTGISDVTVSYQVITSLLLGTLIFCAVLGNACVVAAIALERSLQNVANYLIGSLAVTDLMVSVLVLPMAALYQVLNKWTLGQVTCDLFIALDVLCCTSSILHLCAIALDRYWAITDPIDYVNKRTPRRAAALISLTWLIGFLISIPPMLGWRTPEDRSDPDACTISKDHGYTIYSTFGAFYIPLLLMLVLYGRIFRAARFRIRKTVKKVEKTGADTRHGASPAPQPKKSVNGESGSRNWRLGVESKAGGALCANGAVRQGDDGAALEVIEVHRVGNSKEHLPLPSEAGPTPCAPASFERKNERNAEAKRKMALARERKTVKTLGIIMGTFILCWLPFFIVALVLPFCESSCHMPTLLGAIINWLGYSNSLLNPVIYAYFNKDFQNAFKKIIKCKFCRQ
The experiment in a line: Agonist activity at recombinant human 5-HT1A assessed as induction of cAMP levels at 10 uM by HTRF assay relative to agonist. Type of assay: functional.

Chain of Delta-type opioid receptor (Homo sapiens) (P41143 whole entry): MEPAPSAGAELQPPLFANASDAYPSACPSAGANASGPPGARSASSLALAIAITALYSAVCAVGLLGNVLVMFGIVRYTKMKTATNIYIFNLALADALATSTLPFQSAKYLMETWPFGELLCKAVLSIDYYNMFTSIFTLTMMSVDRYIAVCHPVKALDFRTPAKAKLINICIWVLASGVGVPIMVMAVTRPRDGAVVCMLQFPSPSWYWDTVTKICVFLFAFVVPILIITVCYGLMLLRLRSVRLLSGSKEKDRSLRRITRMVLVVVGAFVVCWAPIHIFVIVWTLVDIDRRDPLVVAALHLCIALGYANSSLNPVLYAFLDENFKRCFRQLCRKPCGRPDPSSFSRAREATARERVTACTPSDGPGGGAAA
Chain of Mu-type opioid receptor (Homo sapiens) (P35372 whole entry): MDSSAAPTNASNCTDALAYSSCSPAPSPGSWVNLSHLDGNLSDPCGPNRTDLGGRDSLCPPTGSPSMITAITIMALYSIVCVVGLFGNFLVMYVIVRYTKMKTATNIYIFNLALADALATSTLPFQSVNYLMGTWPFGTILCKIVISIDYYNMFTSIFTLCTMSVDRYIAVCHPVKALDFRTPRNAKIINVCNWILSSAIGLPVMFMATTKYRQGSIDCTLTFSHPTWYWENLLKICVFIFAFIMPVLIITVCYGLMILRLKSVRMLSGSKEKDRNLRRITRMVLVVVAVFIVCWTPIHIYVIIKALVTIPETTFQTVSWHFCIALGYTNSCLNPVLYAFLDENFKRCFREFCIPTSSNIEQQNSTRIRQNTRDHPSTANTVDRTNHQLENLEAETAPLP

As for `CN(CCNC(=O)c1ccc([N+](=O)[O-])cc1)Cc1ccccc1`, the Activity was found to be 0% in [1]; 0% in [4]; 60% in assay [8]; 0% in [9]; 4% in assay [10]. Also, the inhibition in assay [2] turned out to be 21%; in assay [3], 3%; in assay [5], 30%; in assay [6], 62%; in assay [7] it was 36%.
For `CN(CCCNC(=O)c1cccc(Br)c1)Cc1ccccc1`, the Activity was -1% in assay [1]; 0% in [4]; 15% in assay [8]; -1% in assay [9]; -4% in assay [10]. The inhibition in assay [2] stood at 9%; in assay [3] it was 0%; in assay [5] it was 83%; in assay [6], 97%; in assay [7], 23%.
In the case of `CCCc1ccc(C(=O)NCCCN(C)Cc2ccccc2)cc1`, the Activity was 1% in assay [1]; 0% in assay [4]; 31% in assay [8]; -1% in [9]; -4% in assay [10]. Besides, the inhibition in [2] came to 8%; in assay [3] it was 8%; in [5] it was 90%; in assay [6], 96%; in assay [7], 13%.
With `CN(CCCNC(=O)c1ccc(Br)cc1)Cc1ccccc1`, the Activity in assay [1] was 1%; in [4], 0%; in [8] it was 39%; in [9], 0%; in assay [10] it was 0%. For the same compound, the inhibition was 6% in [2]; -1% in assay [3]; 79% in [5]; 93% in assay [6]; 8% in assay [7].
For the compound `COc1ccc(C(=O)NCCCN(C)Cc2ccccc2)cc1`, the Activity was -6% in [1]; 0% in assay [4]; 16% in [8]; 0% in assay [9]; -2% in [10]. Further, the inhibition in assay [2] came to 15%; in assay [3], 4%; in assay [5] it was 19%; in assay [6], 52%; in [7] it was 16%.
As to `CN(CCCNC(=O)c1ccc(Cl)cc1)Cc1ccccc1`, the Activity in assay [1] was found to be 0%; in assay [4] it was 0%; in assay [8] it was 26%; in assay [9], 0%; in assay [10], 3%. For the same compound, the inhibition is 7% in assay [2]; 0% in assay [3]; 42% in [5]; 92% in [6]; 17% in assay [7].
As for `CN(CCCNC(=O)c1ccc([N+](=O)[O-])cc1)Cc1ccccc1`, the Activity in [1] is -1%; in assay [4], 0%; in [8], 31%; in assay [9], -1%; in assay [10] it was -1%. The inhibition in assay [2] worked out at 2%; in assay [3] it was 1%; in [5] it was 23%; in [6], 95%; in assay [7], 17%.
Consider `CN(CCCNC(=O)c1ccc(C(F)(F)F)cc1)Cc1ccccc1`, for which the Activity in [1] was 3%; in assay [4] it was -1%; in assay [8], 43%; in assay [9] it was 0%; in [10] it was -5%. Further, the inhibition in [2] is 6%; in assay [3], 4%; in [5], 75%; in assay [6], 79%; in assay [7], 14%.
On to `CN(CCNC(=O)c1ccc(C#N)cc1)Cc1ccccc1`, for which the Activity in assay [1] was -2%; in [4] it was 0%; in assay [8] it was 66%; in [9], -1%; in assay [10] it was 4%. The inhibition was 25% in [2]; 2% in assay [3]; 75% in assay [5]; 56% in assay [6]; 28% in assay [7].
With `CN(CCCNC(=O)c1ccc(Cl)cc1)CCc1ccccc1`, the Activity in assay [1] was determined as 0%; in [4] it was 0%; in assay [8], 22%; in assay [9] it was 1%; in assay [10], 32%. The inhibition was found to be 4% in assay [2]; 2% in assay [3]; 62% in [5]; 95% in assay [6]; 40% in assay [7].
Consider `CN(CCNC(=O)c1ccc(Cl)cc1)Cc1ccccc1`, for which the Activity was 1% in assay [1]; 0% in assay [4]; 62% in [8]; -1% in [9]; 3% in assay [10]. Besides, the inhibition in assay [2] turned out to be 13%; in assay [3], 1%; in assay [5] it was 51%; in assay [6], 96%; in assay [7], 22%.
Take `COc1cccc(C(=O)NCCCN(C)Cc2ccccc2)c1`: the Activity in assay [1] was -4%; in [4], 0%; in assay [8] it was 16%; in assay [9], 0%; in assay [10], 0%. In addition, the inhibition in [2] came out at 16%; in assay [3] it was 2%; in [5], 28%; in assay [6], 82%; in [7], 16%.
